# Test results: patent publication US20260207604A1, “COMPOUND AND USE THEREOF” (ONQUALITY PHARMACEUTICALS CHINA LTD., priority 2022, published 2026)
# Read-outs that look alike come from different tables or passages of the source.
# Tests used:
# [1] = tested on: MCF-7 human breast cancer cells; assay: Cell viability assay (CELLTITER-GLO); format: cell-based; conditions: MCF7, 168 h, MCF-7 cells, 7 days
# Experimental: The cell viability of MCF-7 human breast cancer cells under standard culture conditions was assessed using the CELLTITER-GLO assay. MCF-7 cells were seeded at 3,000 cells per well in 96-well plates and incubated overnight in a CO2 incubator. The next day, serial dilutions of Compound 1 at various concentrations were added to the wells. The plates were returned to the incubator and cultured for 7 days. After 7 days, the plates were equilibrated at room temperature for 30 minutes. Subsequently, 100 μL of CELLTITER-GLO detection solution was added. The cells were mixed on an orbital shaker for 5 min and then incubated for additional 10 min. The plate was read with an ENVISION reader. Data were processed and analyzed to determine the IC50 values.
# [2] = tested on: 5-FU-induced diarrhea model; assay: 5-FU-induced diarrhea model, 5-FU 1-day model; format: in vivo, Balb/c mice; conditions: 5-FU 175 mg/kg once a day, mice
# Source text: The 5-FU-induced diarrhea model was used as an experimental model of the present invention to evaluate the in vivo activity of the compounds.
# Balb/c mice (20-25 g, 7-8 weeks old, Jihui) were acclimated for one week and then randomly assigned to 3 groups (n=10 per group): control group, 5-FU group, and CDK inhibitor group. The control group received the same vehicle as the CDK inhibitor group by oral gavage, followed by injection of the same vehicle as the 5-FU group. The 5-FU group received the same vehicle by oral gavage as the CDK inhibitor group, followed by 5-FU injection. The CDK inhibitor group received oral administration of the CDK inhibitor, followed by 5-FU injection. From day 1 to day 7, the severity of diarrhea was assessed for each mouse according to the diarrhea scoring system.
# (§1) The diarrhea scoring system was based on the method by Akinobu Kurita (Cancer Chemother Pharmacol 2000; 46:211-20), Grade 0: normal stool; Grade 1: mild diarrhea, slightly soft stool and wet stool; Grade 2: moderate diarrhea, loose stool with slight perianal staining; Grade 3: severe diarrhea, loose watery stool with severe perianal staining.
# The diarrhea relief rate (%) was calculated as follows: […]
# [3] = tested on: Irinotecan-induced diarrhea model; assay: Irinotecan-induced diarrhea model; format: in vivo, Balb/c mice; conditions: irinotecan 230 mg/kg once a day, 1 day, mice
# Source text: Irinotecan-induced diarrhea and/or constipation models were employed as additional in vivo experimental models to evaluate the activity of the compounds of the present application.
# Balb/c mice (20-25 g, 7-8 weeks old, Jihui) were acclimated for one week and then randomly assigned to 3 groups (n=10 per group): control group, irinotecan group, and CDK inhibitor group. Control group: received the same vehicle as the CDK inhibitor group by oral gavage, followed by injection of the same vehicle as the irinotecan group; irinotecan group: received the same vehicle by oral gavage as the CDK inhibitor group, followed by injection of irinotecan; CDK inhibitor group: received oral administration of the CDK inhibitor, followed by injection of irinotecan.
# In the irinotecan group, approximately 6 to 9 out of 10 mice developed diarrhea. From Day 1 to Day 7, the severity of diarrhea in each mouse was evaluated using the following scoring criteria:
# as §1, with “staining. Calculate the diarrhea Relief rate of compound treatment. Relief rate (%)=(diarrhea score of irinotecan group−diarrhea score of CDK inhibitor group)/diarrhea score of irinotecan group×100%.” for “staining.”
# [4] = tested on: Irinotecan-induced constipation model; assay: Irinotecan-induced constipation model; format: in vivo, Sprague-Dawley rats; conditions: irinotecan 260 mg/kg once a day, 1 day, rats
# Source text: Sprague-Dawley rats (180-200 g, 7-8 weeks old, Jihui) were acclimated for 7 days and randomly divided into three groups: control group, irinotecan group, and CDK inhibitor group, with 10 rats per group. The control group received the same vehicle orally as the CDK inhibitor group, followed by an injection of the same vehicle as the irinotecan group; the irinotecan group received the same oral vehicle as the CDK inhibitor group, followed by an injection of irinotecan; the CDK inhibitor group received the CDK inhibitor orally, followed by an injection of irinotecan.
# From Day 2 to Day 7, the degree of constipation was assessed for each rat based on the following score:
# Constipation assessment: Feces excreted within a 3-hour period were collected and evaluated for morphology and weight using an electronic balance. Stool reduction rate was calculated according to the method of Ji Eun Kim (Lab Anim Res. 2016 December; 32(4): 231-240). Stool reduction rate (%)=(Control group−Irinotecan or CDK inhibitor group)/Control group×100%.
# The constipation relief rate of the CDK inhibitor was calculated as follows: Relief rate (%)=([…])/Irinotecan group stool reduction rate×100%.
# [5] = 25 mg/kg oral, 6 hours before and 6 hours after irinotecan
# [6] = 50 mg/kg oral, 8 hours before irinotecan and 4 hours after irinotecan
# [7] = 100 mg/kg oral, 10 hours before irinotecan and 2 hours after irinotecan
# [8] = 25 mg/kg oral, 6 hours before irinotecan and 6 hours after irinotecan
smiles,measurement,setting,value
CC(=O)c1c(C)c2cnc(Nc3ccc(N4CCN(S(=O)(=O)NCC(C)CN)CC4)cn3)nc2n(C2CCCC2)c1=O (stereo not shown) [Compound 5],IC50,[1]; read-out: Absolute IC 50,< 10 µM
same,IC50,[1]; read-out: Relative IC 50,< 10 µM
same,diarrhea relief rate,"[2]; 10 mg/kg oral, 12 hours before 5-FU and 0 hours after 5-FU",25%
same,diarrhea relief rate,"[2]; 25 mg/kg oral, 6 hours before and 6 hours after 5-FU",40%
same,diarrhea relief rate,"[2]; 50 mg/kg oral, 8 hours before 5-FU and 4 hours after 5-FU",30%
same,diarrhea relief rate,"[2]; 100 mg/kg oral, 4 hours before 5-FU and 8 hours after 5-FU",40%
same,diarrhea relief rate,"[3]; 5 mg/kg oral, 4 hours before and 8 hours after irinotecan",25%
same,diarrhea relief rate,[3]; [5],50%
same,diarrhea relief rate,[3]; [6],50%
same,diarrhea relief rate,[3]; [7],35%
same,constipation relief rate,"[4]; 5 mg/kg oral, 4 hours before irinotecan and 8 hours after irinotecan",25%
same,constipation relief rate,[4]; [8],40%
same,constipation relief rate,"[4]; 50 mg/kg oral, 4 hours before irinotecan and 8 hours after irinotecan",80%
same,constipation relief rate,[4]; [6],60%
same,constipation relief rate,"[4]; 100 mg/kg oral, 4 hours before irinotecan and 8 hours after irinotecan",50%
same,constipation relief rate,[4]; [7],40%
CC(=O)c1c(C)c2cnc(Nc3ccc(N4CCN(S(=O)(=O)NCC(C)(C)CN)CC4)cn3)nc2n(C2CCCC2)c1=O [Compound 6],IC50,[1]; read-out: Absolute IC 50,< 1 µM
same,IC50,[1]; read-out: Relative IC 50,< 1 µM
same,diarrhea relief rate,"[2]; 10 mg/kg oral, 10 hours before 5-FU and 2 hours after 5-FU",60%
same,diarrhea relief rate,"[2]; 25 mg/kg oral, 8 hours before 5-FU and 4 hours after 5-FU",75%
same,diarrhea relief rate,"[2]; 50 mg/kg oral, 6 hours before and 6 hours after 5-FU",80%
same,diarrhea relief rate,"[2]; 100 mg/kg oral, 12 hours before 5-FU",50%
same,diarrhea relief rate,"[3]; 10 mg/kg oral, 4 hours before and 8 hours after irinotecan",50%
same,diarrhea relief rate,"[3]; 25 mg/kg oral, 4 hours before and 8 hours after irinotecan",85%
same,diarrhea relief rate,[3]; [5],60%
same,diarrhea relief rate,"[3]; 100 mg/kg oral, 12 hours before irinotecan",40%
same,constipation relief rate,"[4]; 10 mg/kg oral, 4 hours before irinotecan and 8 hours after irinotecan",40%
same,constipation relief rate,"[4]; 25 mg/kg oral, 4 hours before irinotecan and 8 hours after irinotecan",75%
same,constipation relief rate,[4]; [8],60%
same,constipation relief rate,"[4]; 50 mg/kg oral, 6 hours before irinotecan and 6 hours after irinotecan",75%
same,constipation relief rate,"[4]; 150 mg/kg oral, 12 hours before irinotecan",25%
